According to patent US20230391772A1, “METHODS AND COMPOSITIONS FOR TARGETED PROTEIN DEGRADATION” (Ranok Therapeutics (Hangzhou) Co. Ltd., priority 2020, published 2023):

Tests used:
[1] = test system: MIA PaCa-2 human pancreatic carcinoma; assay: MIA PaCa-2 CCK-8 proliferation assay; format: cell-based; conditions: Homo sapiens, MIA PaCa-2, 72 h, MIA PaCa-2 cells
In short: (§1)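 CCK-8 absorbance readout; % inhibition = 100 − (compound − blank)/(DMSO − blank) × 100, blank = medium + DMSO, no cells. Dose range 20 μM down to 1.02 nM, 3-fold steps. KRAS(G12C) copy number: MIA PaCa-2 2; NCI-H358 1; NCI-H23 1.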

KRAS(G12C) [2] = target: T1, KRAS(G12C) (Homo sapiens, UniProt P01116, G12C); assay: KRAS(G12C) Western blot protein degradation assay in MIA PaCa-2 cells; format: cell-based; design: host or cells: LU65A; conditions: 48 hr; for inhibition at 0.1562 µM: 156.2 nM; for inhibition at 0.3125 µM: 312.5 nM; for inhibition at 0.625 µM: 625 nM; for inhibition at 1.25 µM: 1250 nM; for inhibition at 2.5 µM: 2500 nM; for inhibition at 5 µM: 5000 nM; for inhibition at 10 µM: 10,000 nM
Method: The following cancer cell lines were employed: BT-474 human breast carcinoma (ATCC, #HTB-20); MIA PaCa-2 human pancreatic carcinoma [2 copies KRAS(G12C)](ATCC, #CRL-1420); NCI-H23 human non-small cell lung cancer [1 copy KRAS(G12C)](ATCC, #CRL-5800); NCI-H358 human non-small cell lung cancer [1 copy KRAS(G12C)](ATCC, #CRL-5807); LU65A human lung carcinoma (Pharmaron, Beijing, China). Cell lines were cultured essentially according to ATCC and Pharmaron recommendations.
KRAS(G12C) Western Blot Protein Degradation Assay
The MIA PaCa-2 human pancreatic carcinoma cell line and LU65A human lung cancer cell line, which expresses KRAS(G12C), were seeded in 6- or 12-well tissue culture plates, and after 1 hr, test compounds were added at various concentrations and incubated at 37° C./5% CO2 for 48 hr (MIA Paca-2) and 6 hr (LU65A) respectively. Cells were then washed with cold PBS, aspirated and cold RIPA buffer containing a protease/phosphatase inhibitor cocktail was added to lyse cells. After centrifugation, the total protein concentrations of cell lysates were determined using the BCA protein assay. Samples were normalized for equivalent protein concentrations, 5×SDS-PAGE loading buffer added and denatured at 100° C. for 10 min. 20 μl of each sample/well was loaded on a SDS-PAGE gel and electrophoresed for 20 min at 80 V, then 120 V for 1.5 hr. Gels were then electroblotted to nitrocellulose membranes using a wet-transfer method at 250 mA for 2.5 hr. Membranes were incubated with blocking buffer for 1 hr and washed 3 times with TBST for 5 min. Membranes were then incubated with anti-KRAS (Sigma-Aldrich, #SAB1404011) and anti-β-Actin monoclonal antibodies (Cell Signaling Technology, #3700) diluted in blocking buffer at 4° C. overnight per the manufacturer's recommendations. After washing 3 times, blots were incubated with appropriately labeled secondary antibodies for 1 hr at room temperature and washed again. Fluorescence imaging and quantitation was performed using a LI-COR Odyssey. Results was analyzed using GraphPad Prism 7 software. Compound degradation of was determined by the following equation and DC50 values (the concentration at which 50% of the maximal degradation of KRAS occurs) calculated using GraphPad Prism 7 software:
% Inhibition=100−(D−B)/(S−B)*100%. • S: Fluorescence intensity of cells with antibody • D: Fluorescence intensity of compound-treated cells with antibody • B: Fluorescence intensity of cells without antibody

HSP90a protein = target: T2, HSP90a protein (Homo sapiens, UniProt P07900); assay: HSP90α-binding fluorescent polarization (FP) assay, BODIPY-labeled RNK04010 probe; conditions: FP competition with RNK04010 (BODIPY-labeled), 5 nM, 300 min at 25° C.
T2 construct: purchased BPS Bioscience 50298
In short: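 Compounds (20 μM down to 5.2 nM, 2.5-fold steps) compete with a 5 nM fluorescent tracer for N-terminal HSP90a, measured by fluorescence polarization. With FITC-geldanamycin, plates sit 120 min at 25 °C. With BODIPY-RNK04010, they sit 300 min at 25 °C.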

[3] = test system: NCI-H358 human non-small cell lung cancer; assay: NCI-H358 CCK-8 proliferation assay; format: cell-based; conditions: NCI-H358 cells, 72 hr
In short: as §1

KRAS(G12C) [4] = target: T1, KRAS(G12C); assay: KRAS(G12C)/SOS1 homogeneous time-resolved fluorescence (HTRF) assay; design: purchased Cisbio 63ADK000CB16PEG; conditions: absence of GTP, 4° C. for 3 hr, read-out: KRAS (G12C) binding
In short: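 Three-hour incubation at 4 °C of 3-fold compound dilutions (lowest 1.02 nM) with KRAS(G12C), SOS1 and detection reagents, GTP absent. Disruption of the KRAS(G12C)/SOS1 complex detected by time-resolved fluorescence.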

KRAS(G12C) [5] = target: T1, KRAS(G12C); assay: KRAS(G12C) Western blot protein degradation assay in LU65A cells; format: cell-based; design: LU65A human lung cancer cell line, which expresses KRAS(G12C); host or cells: LU65A; conditions: 6 hr
In short: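 KRAS levels read by fluorescent Western blot (β-actin as reference) on BCA-normalized lysates. Exposure to a compound concentration range at 37 °C lasted 6 hr in LU65A and 48 hr in MIA PaCa-2; DC50 taken as half-maximal degradation concentration.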

T1 sequence (P01116 1-188 isoform P01116-2 G12C): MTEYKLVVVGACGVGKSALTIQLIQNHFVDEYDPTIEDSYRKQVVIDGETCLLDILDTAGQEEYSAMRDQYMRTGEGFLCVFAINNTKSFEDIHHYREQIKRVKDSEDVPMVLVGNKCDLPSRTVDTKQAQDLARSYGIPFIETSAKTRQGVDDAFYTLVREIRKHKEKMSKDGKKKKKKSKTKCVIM

Compound	EC50 [1]	inhibition at 0.1562 µM (KRAS(G12C) [2])	inhibition at 0.3125 µM (KRAS(G12C) [2])	inhibition at 0.625 µM (KRAS(G12C) [2])	inhibition at 1.25 µM (KRAS(G12C) [2])	inhibition at 2.5 µM (KRAS(G12C) [2])	inhibition at 5 µM (KRAS(G12C) [2])	inhibition at 10 µM (KRAS(G12C) [2])	IC50 (HSP90a protein)	EC50 [3]	IC50 (KRAS(G12C) [4])	DC50 (KRAS(G12C) [5])
C=CC(=O)N1CCN(c2nc(OC[C@@H]3CCN(C(=O)c4cc(CC)c(O)cc4O)C3)nc3c2CCN(c2cccc4cccc(Cl)c24)C3)C[C@@H]1CC#N [Compound 158, 2-((S)-1-acryloyl-4-(7-(8-chloronaphthalen-1-yl)-2-(((R)-1-(5-ethyl-2,4-dihydroxybenzoyl)pyrrolidin-3-yl)methoxy)-5,6,7,8-tetrahydropyrido[3,4-d]pyrimidin-4-yl)piperazin-2-yl)acetonitrile]	> 1000 nM	< 33%	< 33%	< 33%	< 33%	< 33%	< 33%	< 33%	> 1000 nM	> 1000 nM	> 1000 nM	
C=CC(=O)N1CCN(c2nc(OC[C@@H]3CCN(C(=O)c4cc(C(C)C)c(OC)cc4O)C3)nc3c2CCN(c2cccc4cccc(Cl)c24)C3)C[C@@H]1CC#N [Compound 159, 2-((S)-1-acryloyl-4-(7-(8-chloronaphthalen-1-yl)-2-(((R)-1-(2-hydroxy-5-isopropyl-4-methoxybenzoyl)pyrrolidin-3-yl)methoxy)-5,6,7,8-tetrahydropyrido[3,4-d]pyrimidin-4-yl)piperazin-2-yl)acetonitrile]		< 33%	< 33%	< 33%	< 33%	< 33%	< 33%	< 33%	> 1000 nM	> 1000 nM	> 1000 nM	
C=CC(=O)N1CCN(c2nc(OC[C@@H]3CCN(CCC(=O)c4cc(C(C)C)c(O)cc4O)C3)nc3c2CCN(c2cccc4cccc(Cl)c24)C3)C[C@@H]1CC#N [Compound 186, 2-((S)-1-acryloyl-4-(7-(8-chloronaphthalen-1-yl)-2-(((R)-1-(3-(2,4-dihydroxy-5-isopropylphenyl)-3-oxopropyl)pyrrolidin-3-yl)methoxy)-5,6,7,8-tetrahydropyrido[3,4-d]pyrimidin-4-yl)piperazin-2-yl)acetonitrile, trifluoroacetic acid]								33 to 66%	> 1000 nM		100 to 1000 nM	> 1000 nM
C=CC(=O)N1CCN(c2nc(OC[C@@H]3CCN(C(=O)C4CCN(Cc5ccc(-n6c(C(=O)NCC(F)(F)F)nnc6-c6cc(C(C)C)c(O)cc6O)cc5)CC4)C3)nc3c2CCN(c2cccc4cccc(Cl)c24)C3)C[C@@H]1CC#N [Compound 185, 4-(4-((4-((R)-3-(((4-((S)-4-acryloyl-3-(cyanomethyl)piperazin-1-yl)-7-(8-chloronaphthalen-1-yl)-5,6,7,8-tetrahydropyrido[3,4-d]pyrimidin-2-yl)oxy)methyl)pyrrolidine-1-carbonyl)piperidin-1-yl)methyl)phenyl)-5-(2,4-dihydroxy-5-isopropylphenyl)-N-(2,2,2-trifluoroethyl)-4H-1,2,4-triazole-3-carboxamide]	< 100 nM	< 33%	< 33%	< 33%	33 to 66%	> 66%	> 66%	> 66%	100 to 1000 nM		100 to 1000 nM	
C=CC(=O)N1CCN(c2nc(OC[C@@H]3CCN(C(=O)C4CCN(Cc5ccc(-n6c(C(N)=O)nnc6-c6cc(C(C)C)c(O)cc6O)cc5)CC4)C3)nc3c2CCN(c2cccc4cccc(Cl)c24)C3)C[C@@H]1CC#N [Compound 183, 4-(4-((4-((R)-3-(((4-((S)-4-acryloyl-3-(cyanomethyl)piperazin-1-yl)-7-(8-chloronaphthalen-1-yl)-5,6,7,8-tetrahydropyrido[3,4-d]pyrimidin-2-yl)oxy)methyl)pyrrolidine-1-carbonyl)piperidin-1-yl)methyl)phenyl)-5-(2,4-dihydroxy-5-isopropylphenyl)-4H-1,2,4-triazole-3-carboxamide]	100 to 1000 nM	< 33%	< 33%	< 33%	33 to 66%	33 to 66%	> 66%	> 66%	100 to 1000 nM			
C=CC(=O)N1CCN(c2nc(OC[C@@H]3CCN(C(=O)C4CCN(Cc5ccc(-n6c(O)nnc6-c6cc(C(C)C)c(O)cc6O)cc5)CC4)C3)nc3c2CCN(c2cccc4cccc(Cl)c24)C3)C[C@@H]1CC#N [Compound 148, 2-((S)-1-acryloyl-4-(7-(8-chloronaphthalen-1-yl)-2-(((R)-1-(1-(4-(3-(2,4-dihydroxy-5-isopropylphenyl)-5-hydroxy-4H-1,2,4-triazol-4-yl)benzyl)piperidine-4-carbonyl)pyrrolidin-3-yl)methoxy)-5,6,7,8-tetrahydropyrido[3,4-d]pyrimidin-4-yl)piperazin-2-yl)acetonitrile]	100 to 1000 nM	< 33%	< 33%	< 33%	< 33%	< 33%	< 33%	33 to 66%	< 100 nM	100 to 1000 nM	100 to 1000 nM	
C=CC(=O)N1CCN(c2nc(OC[C@@H]3CCN(C(=O)c4cc(C(C)C)c(O)cc4O)C3)nc3c2CCN(c2cccc4cccc(Cl)c24)C3)C[C@@H]1CC#N [Compound 157, 2-((S)-1-acryloyl-4-(7-(8-chloronaphthalen-1-yl)-2-(((R)-1-(2,4-dihydroxy-5-isopropylbenzoyl)pyrrolidin-3-yl)methoxy)-5,6,7,8-tetrahydropyrido[3,4-d]pyrimidin-4-yl)piperazin-2-yl)acetonitrile]		< 33%	< 33%	< 33%	< 33%	< 33%	< 33%	< 33%	> 1000 nM	> 1000 nM	> 1000 nM	
C=CC(=O)N1CCN(c2nc(OC[C@@H]3CCN(C(=O)c4cc(C(C)C)c(O)cc4OC)C3)nc3c2CCN(c2cccc4cccc(Cl)c24)C3)C[C@@H]1CC#N [Compound 153, 2-((S)-1-acryloyl-4-(7-(8-chloronaphthalen-1-yl)-2-(((R)-1-(4-hydroxy-5-isopropyl-2-methoxybenzoyl)pyrrolidin-3-yl)methoxy)-5,6,7,8-tetrahydropyrido[3,4-d]pyrimidin-4-yl)piperazin-2-yl)acetonitrile]	> 1000 nM	< 33%	< 33%	< 33%	< 33%	< 33%	< 33%	< 33%	> 1000 nM	> 1000 nM		
